We go through 13 molecules from ChEMBL document CHEMBL3044668, “Synthesis of (substituted benzamidostyryl) lH-benzimidazoles and their screening for anti-inflammatory activity” (Med Chem Res, 2012).

Data set [1] has as its system Rattus norvegicus. Put plainly: Anti-inflammatory activity against Rattus norvegicus Wistar albino (rat) assessed as inhibition of carrageenan-induced paw edema at 20 mg/kg, ip measured 4 hr after carrageenan challenge by plethysmometer. The class given is functional. As to conditions: route intraperitoneal. On the technique in general: In the carrageenan paw model, swelling and tenderness develop within hours.

Data set [2] relates to Rattus norvegicus. Put plainly: Anti-inflammatory activity against Rattus norvegicus Wistar albino (rat) assessed as inhibition of carrageenan-induced paw edema at 20 mg/kg, ip measured 3 hr after carrageenan challenge by plethysmometer. As to conditions: route intraperitoneal. Format: functional.
In data set [3] the test system is Rattus norvegicus. Description: Gastrointestinal toxicity in Rattus norvegicus Wistar (rat) assessed as ulcer index at 30 mg/kg, po measured after 17 hr. On the set-up: dose 30 mg/kg, route oral. Conditions: in vivo. Format: organism-based.
For data set [4], the system named is Rattus norvegicus. Description: Gastrointestinal toxicity in Rattus norvegicus Wistar (rat) assessed as ulcer index at 20 mg/kg, po measured after 17 hr. The class given is organism-based. Also on record: dose 20 mg/kg, route oral. Conditions: in vivo.
Data set [5] deals with Rattus norvegicus. Description: Anti-inflammatory activity against Rattus norvegicus Wistar albino (rat) assessed as inhibition of carrageenan-induced paw edema at 10 mg/kg, ip measured 4 hr after carrageenan challenge by plethysmometer. As to conditions: route intraperitoneal. Format: functional.
Data set [6] has as its system Rattus norvegicus. Description: Anti-inflammatory activity against Rattus norvegicus Wistar albino (rat) assessed as inhibition of carrageenan-induced paw edema at 10 mg/kg, ip measured 3 hr after carrageenan challenge by plethysmometer. Format: functional. Conditions: route intraperitoneal.

SMILES strings stand for the structures.

With `O=C(N/C(=C/c1ccccc1)c1nc2ccc([N+](=O)[O-])cc2[nH]1)c1ccccc1`, the inhibition in vivo at 20 mg/kg worked out at 50% in the data set with Rattus norvegicus [1] and 33.3% in the data set with Rattus norvegicus [2].

With `O=C(N/C(=C/c1ccccc1Cl)c1nc2ccccc2[nH]1)c1ccccc1`, the results for the inhibition in vivo at 20 mg/kg in the data set on Rattus norvegicus [1] and in the data set on Rattus norvegicus [2] were 43.6% and 30.3%, respectively.

`Cc1ccc2nc(/C(=C\c3ccccc3)NC(=O)c3ccccc3)[nH]c2c1`: the values for the inhibition in vivo at 20 mg/kg in the data set with Rattus norvegicus [1] and in the data set with Rattus norvegicus [2] were 46.1% and 27.3%, respectively.

In the case of `O=C(N/C(=C/c1ccc(O)cc1)c1nc2ccccc2[nH]1)c1ccccc1`, the inhibition in vivo at 20 mg/kg in the data set on Rattus norvegicus [1] amounted to 47.4%; with Rattus norvegicus [2] it was 27.3%.

Turning to `Cc1ccc2nc(/C(=C\c3ccccc3Cl)NC(=O)c3ccccc3)[nH]c2c1`, the inhibition in vivo at 20 mg/kg with Rattus norvegicus [1] amounted to 50%; in the data set on Rattus norvegicus [2], 36.4%.

For the molecule `Cc1ccc(/C=C(/NC(=O)c2ccccc2)c2nc3ccccc3[nH]2)cc1`, the UI with Rattus norvegicus [3] was determined as 1. Further, the inhibition in vivo at 20 mg/kg in the data set with Rattus norvegicus [1] is 47.4%; in the data set on Rattus norvegicus [2], 39.4%.

For the molecule `COc1ccc(/C=C(/NC(=O)c2ccccc2)c2nc3ccccc3[nH]2)cc1`, the inhibition in vivo at 20 mg/kg is 35.9% in the data set on Rattus norvegicus [1] and 39.4% with Rattus norvegicus [2].

`COc1ccc(/C=C(/NC(=O)c2ccccc2)c2nc3ccc(C)cc3[nH]2)cc1`: the results for the inhibition in vivo at 20 mg/kg in the data set with Rattus norvegicus [1] and with Rattus norvegicus [2] were 53.8% and 30.3%, respectively.

With `O=C(N/C(=C/c1ccccc1)c1nc2ccccc2[nH]1)c1ccccc1`, the inhibition in vivo at 20 mg/kg in the data set with Rattus norvegicus [1] came out at 46.1%; in the data set on Rattus norvegicus [2], 39.4%.

As for `O=C(N/C(=C/c1ccccc1Cl)c1nc2ccc([N+](=O)[O-])cc2[nH]1)c1ccccc1`, the UI in the data set on Rattus norvegicus [3] is 0.75. The inhibition in vivo at 20 mg/kg was 59% with Rattus norvegicus [1] and 42.4% in the data set with Rattus norvegicus [2].

On to `COc1ccc(/C=C(/NC(=O)c2ccccc2)c2nc3ccc([N+](=O)[O-])cc3[nH]2)cc1`, for which the UI in the data set with Rattus norvegicus [3] is 1.41. Further, the inhibition in vivo at 20 mg/kg was found to be 51.3% with Rattus norvegicus [1] and 24.2% in the data set with Rattus norvegicus [2].

As to `COc1ccc2c(c1)c(CC(=O)O)c(C)n2C(=O)c1ccc(Cl)cc1` [INDOMETHACIN], the UI in the data set with Rattus norvegicus [4] came to 4.5. Further, the inhibition in vivo at 10 mg/kg with Rattus norvegicus [5] amounted to 77.2%; with Rattus norvegicus [6] it was 48.5%.

Take `CN(C)c1ccc(/C=C(/NC(=O)c2ccccc2)c2nc3ccccc3[nH]2)cc1`: the figures for the inhibition in vivo at 20 mg/kg in the data set with Rattus norvegicus [1] and in the data set with Rattus norvegicus [2] were 34.6% and 18.2%, respectively.

Usually inhibition in vivo stands for the relative decrease from the control value, in per cent.
